Laboratory results taken from patent publication US20260256792A1, “TREATMENT OF CHRONIC SPONTANEOUS URTICARIA BY ADMINISTERING (R)-2-[3-[4-AMINO-3-(2-FLUORO-4-PHENOXY-PHENYL)PYRAZOLO[3,4-D]PYRIMIDIN-1-YL]PIPERIDINE-1-CARBONYL]-4-METHYL-4-[4-(OXETAN-3-YL)PIPERAZIN-1-YL]PENT-2-ENENITRILE” (priority 2023, published 2026).

Test system: moderate-to-severe chronic spontaneous urticaria (CSU)
Experiment: Phase 2 CSU study: urticaria control test (UCT)
Type: in vivo, human
Set-up: key to UCT, Mean / UCT, Median / UCT change from baseline, Mean / UCT change from baseline, Median: UCT total = sum of 4 item scores; low = low disease control
Excerpt: The study comprises a 12 week, randomized, double-blind, placebo-controlled, multi-center, dose-ranging efficacy and safety phase, followed by a 40 week open label extension (OLE) phase (see FIG. 1). The study consists of three phases and an optional OLE phase. […] To this end, the UCT was proposed as a tertiary endpoint in this study. […] The dermatology life quality index (DLQI) was proposed as a tertiary endpoint in this study. […] Low scores indicate high disease activity and low disease control. The UCT total score is calculated by adding all 4 individual item scores. […] The recall period is the previous 4 weeks. Patients were to complete the UCT questionnaire during their site visit.

[1] = 400 mg QPM, Week 8, ITT population
[2] = 400 mg QPM, Week 8, omalizumab-naïve population
[3] = 400 mg QPM, Week 8, prior omalizumab use incl. incomplete responders
[4] = 400 mg QPM, Week 12, ITT population
[5] = 400 mg QPM, Week 12, omalizumab-naïve population
[6] = 400 mg QPM, Week 12, prior omalizumab use incl. incomplete responders
[7] = 400 mg TID, End of study, omalizumab-naïve population
[8] = 400 mg TID, End of study, prior omalizumab use incl. incomplete responders
[9] = 400 mg TID, Week 4, ITT population
[10] = 400 mg TID, Week 4, omalizumab-naïve population
[11] = 400 mg TID, Week 4, prior omalizumab use incl. incomplete responders
[12] = 400 mg TID, Week 8, ITT population
[13] = 400 mg TID, Week 8, omalizumab-naïve population
[14] = 400 mg TID, Week 8, prior omalizumab use incl. incomplete responders
[15] = 400 mg TID, Week 12, ITT population
[16] = 400 mg TID, Week 12, omalizumab-naïve population
[17] = 400 mg TID, Week 12, prior omalizumab use incl. incomplete responders

Structure (SMILES): CC(C)(C=C(C#N)C(=O)N1CCC[C@@H](n2nc(-c3ccc(Oc4ccccc4)cc3F)c3c(N)ncnc32)C1)N1CCN(C2COC2)CC1 [rilzabrutinib, (R)-2-[3-[4-amino-3-(2-fluoro-4-phenoxy-phenyl)pyrazolo[3,4-d]pyrimidin-1-yl]piperidine-1-carbonyl]-4-methyl-4-[4-(oxetan-3-yl)piperazin-1-yl]pent-2-enenitrile]
- UCT % Change difference for rilzabrutinib vs. placebo LS Mean (95% CI) [1]: −37.84 (−167.44, 91.76) %
- UCT % Change from baseline LS Mean (SE) [1]: 126.71 (44.63) %
- UCT Change difference for rilzabrutinib vs. placebo LS Mean (95% CI) [1]: −1.21 (−3.16, 0.74)
- UCT Change from baseline LS Mean (SE) [1]: 3.16 (0.71)
- UCT Post-baseline Mean (SD) [1]: 6.97 (3.84)
- UCT % Change difference for rilzabrutinib vs. placebo LS Mean (95% CI) [2]: −48.49 (−177.78, 80.81) %
- UCT % Change from baseline LS Mean (SE) [2]: 121.09 (44.66) %
- UCT Change difference for rilzabrutinib vs. placebo LS Mean (95% CI) [2]: −1.49 (−3.43, 0.45)
- UCT Change from baseline LS Mean (SE) [2]: 2.98 (0.71)
- UCT Post-baseline Mean (SD) [2]: 6.84 (3.84)
- UCT change from baseline, Mean [2]: 3.09
- UCT change from baseline, Median [2]: 2.00
- UCT percent change from baseline, Mean [2]: 138.85%
- UCT, Median [2]: 7.00
- UCT change from baseline, Mean [3]: 6.00
- UCT change from baseline, Median [3]: 6.00
- UCT percent change from baseline, Mean [3]: 120.00%
- UCT percent change from baseline, Median [3]: 120.00%
- UCT % Change difference for rilzabrutinib vs. placebo LS Mean (95% CI) [4]: −100.02 (−238.68, 38.64) %
- UCT % Change from baseline LS Mean (SE) [4]: 99.76 (47.53) %
- UCT Change difference for rilzabrutinib vs. placebo LS Mean (95% CI) [4]: −1.82 (−3.87, 0.23)
- UCT Change from baseline LS Mean (SE) [4]: 2.92 (0.76)
- UCT Post-baseline Mean (SD) [4]: 6.97 (3.84)
- UCT % Change difference for rilzabrutinib vs. placebo LS Mean (95% CI) [5]: −105.95 (−247.17, 35.27) %
- UCT Change difference for rilzabrutinib vs. placebo LS Mean (95% CI) [5]: −1.96 (−3.99, 0.08)
- UCT Change from baseline LS Mean (SE) [5]: 2.77 (0.75)
- UCT Post-baseline Mean (SD) [5]: 6.88 (3.86)
- UCT change from baseline, Mean [5]: 3.13
- UCT change from baseline, Median [5]: 2.00
- UCT percent change from baseline, Mean [5]: 121.74%
- UCT percent change from baseline, Median [5]: 92.86%
- UCT, Median [5]: 7.00
- UCT change from baseline, Mean [6]: 5.00
- UCT change from baseline, Median [6]: 5.00
- UCT percent change from baseline, Mean [6]: 100.00%
- UCT percent change from baseline, Median [6]: 100.00%
- UCT over baseline (400 mg TID): mild increase
- UCT change from baseline, Mean [7]: 4.00
- UCT change from baseline, Median [7]: 4.00
- UCT percent change from baseline, Mean [7]: 41.03%
- UCT percent change from baseline, Median [7]: 41.03%
- UCT change from baseline, Mean [8]: 11.60
- UCT change from baseline, Median [8]: 13.00
- UCT percent change from baseline, Mean [8]: 7.80%
- UCT percent change from baseline, Median [8]: 9.00%
- UCT, Mean [8]: 4.83
- UCT, Median [8]: 4.00
- UCT % Change difference for rilzabrutinib vs. placebo LS Mean (95% CI) [9]: 122.56 (−10.01, 255.13) %
- UCT % Change from baseline LS Mean (SE) [9]: 262.11 (48.72) %
- UCT Change difference for rilzabrutinib vs. placebo LS Mean (95% CI) [9]: 2.34 (0.46, 4.22)
- UCT Change from baseline LS Mean (SE) [9]: 5.68 (0.68)
- UCT Post-baseline Mean (SD) [9]: 10.03 (4.20)
- UCT % Change difference for rilzabrutinib vs. placebo LS Mean (95% CI) [10]: 124.43 (−9.74, 258.61) %
- UCT % Change from baseline LS Mean (SE) [10]: 267.24 (49.68) %
- UCT Change difference for rilzabrutinib vs. placebo LS Mean (95% CI) [10]: 2.23 (0.33, 4.13)
- UCT Change from baseline LS Mean (SE) [10]: 5.47 (0.70)
- UCT Post-baseline Mean (SD) [10]: 9.77 (4.17)
- UCT change from baseline, Mean [10]: 5.63
- UCT change from baseline, Median [10]: 6.50
- UCT percent change from baseline, Mean [10]: 254.30%
- UCT percent change from baseline, Median [10]: 100.00%
- UCT change from baseline, Mean [11]: 7.80
- UCT change from baseline, Median [11]: 9.00
- UCT percent change from baseline, Mean [11]: 146.88%
- UCT percent change from baseline, Median [11]: 143.75%
- UCT, Median [11]: 13.00
- UCT % Change difference for rilzabrutinib vs. placebo LS Mean (95% CI) [12]: 108.30 (−18.30, 234.90) %
- UCT % Change from baseline LS Mean (SE) [12]: 272.85 (43.60) %
- UCT Change difference for rilzabrutinib vs. placebo LS Mean (95% CI) [12]: 1.43 (−0.50, 3.37)
- UCT Change from baseline LS Mean (SE) [12]: 5.80 (0.69)
- UCT Post-baseline Mean (SD) [12]: 10.00 (3.85)
- UCT % Change difference for rilzabrutinib vs. placebo LS Mean (95% CI) [13]: 102.55 (−31.38, 236.49) %
- UCT % Change from baseline LS Mean (SE) [13]: 272.13 (49.40) %
- UCT Change difference for rilzabrutinib vs. placebo LS Mean (95% CI) [13]: 1.19 (−0.75, 3.12)
- UCT Change from baseline LS Mean (SE) [13]: 5.66 (0.71)
- UCT Post-baseline Mean (SD) [13]: 9.80 (3.86)
- UCT change from baseline, Median [13]: 6.50
- UCT percent change from baseline, Mean [13]: 277.48%
- UCT percent change from baseline, Median [13]: 120.83%
- UCT, Median [13]: 9.50
- UCT change from baseline, Median [14]: 5.00
- UCT percent change from baseline, Mean [14]: 107.33%
- UCT percent change from baseline, Median [14]: 25.00%
- UCT % Change difference for rilzabrutinib vs. placebo LS Mean (95% CI) [15]: 122.43 (−16.89, 261.74) %
- UCT % Change from baseline LS Mean (SE) [15]: 322.21 (47.00) %
- UCT Change difference for rilzabrutinib vs. placebo LS Mean (95% CI) [15]: 1.80 (−0.20, 3.79)
- UCT Change from baseline LS Mean (SE) [15]: 6.53 (0.70)
- UCT Post-baseline Mean (SD) [15]: 10.69 (4.25)
- UCT % Change difference for rilzabrutinib vs. placebo LS Mean (95% CI) [16]: 131.76 (−18.16, 281.68) %
- UCT % Change from baseline LS Mean (SE) [16]: 329.00 (51.79) %
- UCT Change difference for rilzabrutinib vs. placebo LS Mean (95% CI) [16]: 1.58 (−0.47, 3.63)
- UCT Change from baseline LS Mean (SE) [16]: 6.31 (0.76)
- UCT change from baseline, Median [16]: 6.00
- UCT percent change from baseline, Mean [16]: 311.71%
- UCT percent change from baseline, Median [16]: 102.86%
- UCT change from baseline, Mean [17]: 8.00
- UCT change from baseline, Median [17]: 9.00
- UCT percent change from baseline, Mean [17]: 156.25%
- UCT percent change from baseline, Median [17]: 162.50%
- patients achieving a UCT≥12 (400 mg TID, over time up to Week 12): > 20%
